# Experimental data: patent US7943159B1, “Female sex pheromone of the dogwood borer (DWB), Synanthedon scitula, and attraction inhibitor (antagonist)” (The United States of America as represented by the …, priority 2006, dated 2011)
# Entries after “also recorded” stand apart in the source; their conditions may differ.
# Assays:
# [1] = test system: adult male DWB antenna; test: Coupled GC-EAD (electroantennographic detection) of synthetic octadecadienyl acetates; parameters: species or system Synanthedon scitula; conditions: for EAD activity in 10 ng of loading: 10 ng loading, male DWB antenna, footnote: relative to E,Z-2,13-octadecadienyl acetate; for EAD activity / electroantennogram response: male DWB antennae, synthetic standards
# Description: Identification of peaks: 1, ZZ 3,13-ODDA; 2, EZ 2,13-ODDA; and 3, ZE 3,13-ODDA. Electrophysiological. Recordings and Mass Spectrometry: The coupled gas chromatographic-electroantennographic detection (GC-EAD) system used was as previously described (Zhang, A., and S. Polavarapu, J. Chem. Ecol., 29: 2153-2164 (2003); Zhang, A., and S. Polavarapu, J. Chem. Ecol., 30: 1531-1545 (2004); Zhang, A., et al., J. Chem. Ecol., 23: 231-245 (1997)). A Hewlett Packard (HP) 6890 gas chromatograph equipped with a 60 m×0.25-mm i.d., 0.25-mm film-thickness DB-[…] capillary column (J&W Scientific Inc., Folsom, Calif., 120° C. for 2 min, then programmed to 250° C. at 10° C./min and held for 10 min) or a 60 m×0.25-mm i.d., 0.25-mm film-thickness DB-5 capillary column (J&W Scientific Inc., 100° C. for 2 min, then programmed to 250° C. at 15° C./min and held for 10 min) in the splitless mode with hydrogen as carrier (1.4 ml/min) was used for GC-EAD analysis. Electronic impact (EI) gas chromatography-mass spectrometry (GC-MS) was conducted on a Hewlett-Packard 6890 GC coupled to a HP 5973 Mass Selective Detector using an identical DB-[…] capillary column (120° C. for 2 min, then programmed to 230° C. at 15° C./min and held for 25 min for regular analysis, but with helium as carrier gas. A 70 eV electron beam was employed for sample ionization.
# [2] = test system: male DWB (Synanthedon scitula); test: Field trapping tests with lure-baited sticky traps in apple orchards; assay type: in vivo
# Experimental: Field Trapping Tests: Red natural rubber septa (5 mm, Wheaton, N.J.) loaded with the desired rates of Z,Z-3,13-ODDA and the blends in […] of hexane solution were used for field deployment. The same amount of solvent (hexane) was loaded on the septum for the blank control. After loading, the solvent was allowed to evaporate in a fume hood for 30 min. Lures were then wrapped in aluminum foil, stored in 20 ml plastic vials, and shipped by express carrier on the same day. Upon arrival, the lures were kept in a freezer at −10° C. until deployed. All field tests were conducted in commercial apple fields in WV, VA, and NC using Pherocon 1C or Delta sticky traps (Trécé, Salinas, Calif.). Traps were placed in trees at ˜1.2 m above the ground (Riedi, Fla., et al., Cana. Entomol., 117: 1367-1377 (1985)). At each location, experimental lures were randomized within each of three to five rows (depending on the number of replicates per test) and separated by at least one buffer row, and traps were spaced at a minimum of ˜25 m intervals within a row. Traps were rotated among positions within each row at weekly intervals for the duration of each test. The number of dogwood borer, peachtree borer, lilac borer, and other male Sesiidae moths captured were recorded weekly. In the first comparison trial, the following lures were deployed: the single component (100% Z,Z-3,13 ODDA); the binary blend (Z,Z-3,13-ODDA:E,Z-2,13-ODDA=94:6); a second two-component blend (Z,Z-3,13-ODDA:Z,E-3,13-ODDA=94:6, based on the molar amount of the Z,Z-3,13-octadecadienyl acetate in the composition); the trinary blend (Z,Z-3,13-ODDA:E,Z-2,13-ODDA:Z,E-3,13-ODDA=88:6:6); and control. Next, to evaluate the attractive effect of addition of third component, 0.5, 1, 3, or 10% based on the molar amount of the Z,Z-3,13-octadecadienyl acetate of Z,E-3,13-ODDA were added into the binary blend individually. Similarly, 0.5, 1, 3, or 10% of E,Z-2,13-ODDA were individually added into a blend consisted of Z,Z-3,13-ODDA:Z, E-3,13-ODDA (94:6) to evaluate the effect of E,Z-2,13-ODDA. In another comparison, 0.5, 1, 2, or 3% E,Z-3,13-ODDA was added to the trinary blend. Dose response tests of the trinary and binary blends were deployed in each location, with doses consisting of 10-μg, 100-μg, 300-μg, 1-mg, and 10-mg (trinary blend); and 10-μg, 100-μg, 300-μg, 500-μg, and 1-mg (binary blend), respectively. Caged live virgin females (2-4 days old and 1 female per cage) were deployed in traps to provide a natural source of pheromone for comparison with traps baited with the binary and trinary blends. In a final comparison to determine over what distance DWB can detect the trinary blend, we compared captures in traps baited with the trinary blend deployed within an infested apple orchard, and 50 and […] outside the orchard within a large wood lot habitat.
# Statistics: The data on control traps were omitted in the analysis because of zero trap catches. Unless otherwise specified, data on trap catches from each test were logarithm transformed (log χ+1) to normalize the variance before analysis. Means were compared by one-way analysis of variance (ANOVA) followed by Ryan-Einot-Gabriel-Welsch Range test (SPSS 10.0 for Windows, George and Mallery, 2002) for significance at α=0.05.
# [3] = test system: dogwood borer (DWB); test: Species-specificity of lures: share of dogwood borer in captures; assay type: in vivo, Synanthedon scitula; conditions: across all sites; FIG. 10
# Experimental: Field Trapping Tests: Red natural rubber septa (5 mm, Wheaton, N.J.) loaded with the desired rates of Z,Z-3,13-ODDA and the blends in […] of hexane solution were used for field deployment. The same amount of solvent (hexane) was loaded on the septum for the blank control. After loading, the solvent was allowed to evaporate in a fume hood for 30 min. Lures were then wrapped in aluminum foil, stored in 20 ml plastic vials, and shipped by express carrier on the same day. Upon arrival, the lures were kept in a freezer at −10° C. until deployed. All field tests were conducted in commercial apple fields in WV, VA, and NC using Pherocon 1C or Delta sticky traps (Trécé, Salinas, Calif.). Traps were placed in trees at ˜1.2 m above the ground (Riedi, Fla., et al., Cana. Entomol., 117: 1367-1377 (1985)). At each location, experimental lures were randomized within each of three to five rows (depending on the number of replicates per test) and separated by at least one buffer row, and traps were spaced at a minimum of ˜25 m intervals within a row. Traps were rotated among positions within each row at weekly intervals for the duration of each test. The number of dogwood borer, peachtree borer, lilac borer, and other male Sesiidae moths captured were recorded weekly. […]
SMILES,EAD activity in 10 ng of loading [1],EAD activity / electroantennogram response [1],further results
"CCCC/C=C/CCCCCCCCC/C=C/COC(C)=O [(E,E)-2,13-Octadecadienyl acetate, reference compound]","0.012 (±0.21% SD, n = 3) mV",–,–
"CCCC/C=C/CCCCCCCC/C=C/CCOC(C)=O [(E,E)-3,13-Octadecadienyl acetate, E,E-3,13-octadecadienyl acetate, reference compound]","0.12 (±3.5% SD, n = 3) mV",–,–
"CCCC/C=C\CCCCCCCCC/C=C/COC(C)=O [(E,Z)-2,13-Octadecadienyl acetate, E,Z-2,13-octadecadienyl acetate]","0.13 (±1.2% SD, n = 3) mV",confirmed by synthetic standards,"effect on attraction of adding the compound to Z,Z-3,13-ODDA:Z,E-3,13-ODDA (94:6) blend ([2]; 0.5 to 10% added, FIG. 4): significantly increased; amount added to 94:6 (Z,Z-3,13-ODDA:Z,E-3,13-ODDA) blend at which captures increased significantly ([2]; all locations, FIG. 4): ≤ 1%"
"CCCC/C=C\CCCCCCCC/C=C/CCOC(C)=O [(E,Z)-3,13-Octadecadienyl acetate, E,Z-3,13-octadecadienyl acetate]","0.30 (±8.7% SD, n = 3) mV","just as strong an electroantennogram response as Z,Z-3,13-ODDA","effect on trap captures of DWB (attraction antagonism) ([2]; added to trinary blend, FIG. 5, listed as E,Z-3,13-ODDA): reduced trap captures of DWB significantly; also recorded: inhibit (antagonize) DWB male response and movement; amount added to trinary blend that significantly inhibited (reduced) trap captures ([2]; all locations, FIG. 5, listed as E,Z-3,13-ODDA): ≤ 0.5%; amount added to trinary blend that significantly inhibited (reduced) trap captures ([2]; all locations, FIG. 5, listed as E,Z-3 μl 3-ODDA): 0.5-1%"
"CCCC/C=C/CCCCCCCCC/C=C\COC(C)=O [(Z,E)-2,13-Octadecadienyl acetate, reference compound]","0.030 (±0.10% SD, n = 3) mV",–,–
"CCCC/C=C/CCCCCCCC/C=C\CCOC(C)=O [(Z,E)-3,13-Octadecadienyl acetate, Z,E-3,13-octadecadienyl acetate]","0.25 (±1.0% SD, n = 3) mV",–,"effect on attraction of adding the compound to the binary blend ([2]; 0.5 to 10% added to binary blend (94:6), FIG. 3, listed as Z,E-3,13-ODDA): did not cause a significant increase in attraction; also recorded: did not observe a similar response"
"CCCC/C=C\CCCCCCCCC/C=C\COC(C)=O [(Z,Z)-2,13-Octadecadienyl acetate, reference compound]","0.029 (±0.79% SD, n = 3) mV",–,–
"CCCC/C=C\CCCCCCCC/C=C\CCOC(C)=O [(Z,Z)-3,13-Octadecadienyl acetate, Z,Z-3,13-octadecadienyl acetate]","0.30 (±9.5% SD, n = 3) mV",confirmed by synthetic standards,"attraction of male DWB (trap captures), blend comparison ([2]; septa containing 1-mg, NC, VA, WV, FIG. 2, listed as Z,Z-3,13-ODDA): surprisingly attractive; also recorded: reliably attract male DWB; percentage of captures that were male dogwood borers [3]: 92-99.6%"
